This note sets out measurements from US5824679A, “Phosphanoxides--preparation and use” (Boehringer Mannheim GmbH, priority 1994, dated 1998).

One test concerns horse thrombin. In words: Thrombin time (clotting of human citrate plasma on addition of thrombin reagent, ball coagulometer). Type of test: biochemical, human plasma; horse thrombin. The settings on record: 37° C., difference to control (ca. 24 sec); for TT0.5 (thrombin time, difference to the control): 0.5 μM in human plasma; for TT5 (thrombin time, difference to the control): 5 μM in human plasma. As to the method: A conventional test in clinical coagulation diagnostics is the thrombin time. This parameter measures the action of thrombin on fibrinogen and the formation of clots. Inhibitors of thrombin result in an extended thrombin time.
In order to obtain plasma 9 parts of fresh blood from healthy donors was mixed with one part of sodium citrate solution (0.11 mol/l) and it was centrifuged for 10 minutes at room temperature at ca. 3000 r.p.m. The plasma was removed by pipette and can be stored at room temperature for ca. 8 hours.
200 μl citrate plasma was incubated for 2 minutes at 37° C. in a ball coagulometer (KC10 from the Amelung Company). 10 μl dimethylsulfoxide (DMSO) or a solution of the active substance in DMSO was added to 190 μl pre-heated thrombin reagent (Boehringer Mannheim GmbH; contains ca. 3 U/ml horse thrombin and 0.0125M Ca^++). On addition of 200 μl of this solution to the plasma a stopwatch was started and the time at which coagulation starts was determined.
The measured thrombin times in seconds are given in the following table as a difference to the control. The concentrations of the active substances in human plasma were 5 μM (TT5) and 0.5 μM (TT0.5).

For a further test, the target named is T1, human α thrombin (Homo sapiens, UniProt P00734).
T1 construct: human α thrombin; purchased Sigma
In words: Thrombin inhibition, kinetic measurement with substrate H-(D)-Phe-Pro-Arg-pNA. Type of test: biochemical. The settings on record: 0.1M phosphate buffer, 0.2M sodium chloride, 0.5% polyethylene glycol 6000, pH=7.5, 25° C. As to the method:
The kinetic measurements were carried out in 0.1M phosphate buffer that contained 0.2M sodium chloride and 0.5% polyethylene glycol 6000 at a pH=7.5 and 25° C. with the substrate H-(D)-Phe-Pro-Arg-pNA; Kabi and human α thrombin (Sigma, specific activity=2150 NIH-units/mg) in polystyrene semi-microcuvettes in a total volume of 1 ml.
In a preliminary test each active substance was determined as to whether it inhibits thrombin rapidly or slowly. For this the reaction was firstly started by adding 0.03 NIH units thrombin to a 100 μM solution of the substrate and the active substance. In a second experiment, substrate was added to a solution of thrombin and the active substance which had been incubated for 5 minutes. The increase in the concentration of p-nitroaniline with time was monitored spectroscopically (UV-VIS spectrophotometer Lambda-2 from the Perkin-Elmer Company) at 405 nm for 12 min.
Since the measured curves obtained in both experiments were linear and parallel, the active substances of the following table are rapid thrombin inhibitors.
The inhibition constants Ki were then determined as follows. The substrate was used at concentrations of 100 μM, 50 μM, 30 μM, 20 μM and at each substrate concentration a measurement was carried out without inhibitor and three measurements were carried out in the presence of various concentrations of the inhibitors listed in the following table. The reactions were started by adding thrombin. The increase in absorbance at 405 nm due to the formation of p-nitroaniline was monitored over a time period of 12 minutes. Measurement points (time versus absorbance) were transferred to a PC at intervals of 20 seconds. The rates VO (change in absorbance per second; measurements without inhibitor) and Vi (measurements with inhibitor) were determined by linear regression. Only that part of the measurement was used in which the substrate concentration had decreased by less than 15%. Km ' and Vmax were determined from a measurement series (constant inhibitor concentration, variable substrate concentrations) by a non-linear fit to the equation [formula]
Finally Ki was calculated from the entire series of measurements by a non-linear fit to the equation [formula]
The Michaelis constant Km was 3.8±2 μm in all measurements.
The inhibition constants Ki of the active substances are stated in the following table in units of μM.

As to `Cc1cc(OCCNc2ccncc2)cc(N(CP(C)(C)=O)S(=O)(=O)c2ccccc2)c1` [Example 1, N-(Dimethyloxophosphinylmethyl)-N-{3-methyl-5-[2-(pyridin-4-ylamino)-ethoxyl]-phenyl}-benzene sulfonamide], in the test with horse thrombin, the “TT0.5 (thrombin time, difference to the control)” value worked out at 33 s and the “TT5 (thrombin time, difference to the control)” value came to 175 s. For the same compound, at human α thrombin, the Ki is 0.1 µM.

Turning to `Cc1cc(OCCNc2ccnnc2)cc(N(CP(C)(C)=O)S(=O)(=O)c2ccccc2OC(C)C)c1` [Example 8], in the test with horse thrombin, the “TT0.5 (thrombin time, difference to the control)” value turned out to be 47 s and the “TT5 (thrombin time, difference to the control)” value came out at 180 s. Further, the inhibition constant (Ki) at human α thrombin came to 0.035 µM.

Turning to `CCCCOc1ccccc1S(=O)(=O)N(CP(C)(C)=O)c1cc(C)cc(OCCNc2ccncc2)c1` [Example 3, N-(Dimethyloxophosphinylmethyl)-N-{3-methyl-5-[2-(pyridin-4-ylamino)-ethoxyl]-phenyl}-2-butoxy-benzene-sulfonamide], in the test with horse thrombin, the “TT0.5 (thrombin time, difference to the control)” value was determined as 50 s and the “TT5 (thrombin time, difference to the control)” value worked out at 300 s. The same compound gave a Ki at human α thrombin of 0.004 µM.

`CCCCCCOc1ccccc1S(=O)(=O)N(CP(C)(C)=O)c1cc(C)cc(OCCNc2ccncc2)c1` [Example 4, N-(Dimethyloxophosphinylmethyl)-N-{3-methyl-5-[2-(pyridin-4-ylamino)-ethoxyl]-phenyl}-2-hexyloxy-benzene-sulfonamide]: in the test on horse thrombin, the “TT0.5 (thrombin time, difference to the control)” value is 11 s and the “TT5 (thrombin time, difference to the control)” value is 113 s. The affinity at human α thrombin corresponds to a Ki of 0.012 µM.

For the compound `COc1ccccc1S(=O)(=O)N(CP(C)(C)=O)c1cc(C)cc(OCCNc2ccncc2)c1` [Example 2, N-(Dimethyloxophosphinvlmethyl)-N-{3-methyl-5-[2-(pyridin-4-ylamino)-ethoxyl]-phenyl}-2-methoxy-benzene-sulfonamide], in the test with horse thrombin, the “TT0.5 (thrombin time, difference to the control)” value was 115 s and the “TT5 (thrombin time, difference to the control)” value was determined as 300 s. On human α thrombin, this compound yielded a Ki of 0.008 µM.

Regarding `CCOc1ccccc1S(=O)(=O)N(CP(C)(C)=O)c1cc(C)cc(OCCNc2ccnnc2)c1` [Example 7], in the test on horse thrombin, the “TT0.5 (thrombin time, difference to the control)” value was found to be 14 s and the “TT5 (thrombin time, difference to the control)” value came out at 109 s. Besides, at human α thrombin, the affinity, expressed as Ki, was 0.06 µM.

On to `CCCOc1ccccc1S(=O)(=O)N(CP(C)(C)=O)c1cc(C)cc(OCCNc2ccnnc2)c1` [Example 6], for which, in the test with horse thrombin, the “TT0.5 (thrombin time, difference to the control)” value stood at 18 s and the “TT5 (thrombin time, difference to the control)” value is 122 s. For the same compound, the Ki on human α thrombin amounted to 0.028 µM.
